The values below come from patent US11192888B2, “Antibacterial compounds” (priority 2017, dated 2021).

Molecules are shown by their SMILES. *1 amine or outer side, *2 acyl side, *3 side chain or, on linkers, in order; H or OH if unused. Where a SMILES comes first, the peptide text is derived from it. [ ]: non-standard residue; d: D form. dAla(ψthiazole) = C[C@@H](N[*:1])c1nc(C(=O)[*:2])cs1; Trp(4-Br) = N[C@@H](Cc1c[nH]c2cccc(Br)c12)C(=O)O; Dhb = C/C=C(\N)C(=O)O; Sar = CNCC(=O)O A value given as a limit tells only on which side of the number the result lay.

Experiment [1] concerns Corynebacterium striatium NCTC 764.
Experiment [2] relates to Enterobacter cloacae NCTC 13406.
For a further experiment, the system named is Clostridium scindens. In words: Growth of Clostridium scindens (separate study). It counts as cell-based. To be noted: at 80.0 μg/mL. An excerpt:
It is known that the presence of Clostridium scindens in the gut can help to keep Clostridium difficile at bay. […] This would not be the case if a broad-spectrum antibiotic, such as vancomycin or metronidazole, was to be used. The lack of activity against Clostridium scindens would, therefore, further help the gut to recover from Clostridium difficile infection.

The test system of experiment [3] is Bifidobacterium bifidum ATCC 11863.

The term MIC denotes the lowest concentration that inhibits growth of the organism. A high value points to a need for much substance.

As to `C/C=C1\NC(=O)[C@@H](C)NC(=O)CNC(=O)[C@H](Cc2c[nH]c3cccc(Br)c23)NC(=O)[C@H](Cc2c[nH]c3ccccc23)NC(=O)c2csc(n2)[C@@H](C)NC(=O)CN(C)C1=O` [Compound 10, Cyclo[D-Ala-Thz-Trp-Trp(4-Br)-Gly-D-Ala-Dhb-Sar]] (cyclo([Dhb][Sar][dAla(ψthiazole)]W[Trp(4-Br)]G[dA])), the MIC in experiment [1], in experiment [2] and in experiment [3] was >64 µg/mL each time. Further, in the experiment with Clostridium scindens, the “growth of Clostridium scindens” value is “unaffected”.
